We go through 2 compounds from paper PMC9015904 (ChemMedChem, 2022).

The structures appear in SMILES notation. Marks after values point to notes of the source that are not given here. Bounds are passed on as bounds.

Data set [1] concerns the target T1, hKOR (Homo sapiens, UniProt P41145). Nature of the data set: biochemical. The data set is classed as binding.
Data set [2] deals with T2, hMOR (Homo sapiens, UniProt P35372). In words: biochemical. The format is binding.
For data set [3], the target named is T3, hDOR (Homo sapiens, UniProt P41143). In words: Competitive radioligand binding assay, DOR.
T3 sequence (P41143 whole entry): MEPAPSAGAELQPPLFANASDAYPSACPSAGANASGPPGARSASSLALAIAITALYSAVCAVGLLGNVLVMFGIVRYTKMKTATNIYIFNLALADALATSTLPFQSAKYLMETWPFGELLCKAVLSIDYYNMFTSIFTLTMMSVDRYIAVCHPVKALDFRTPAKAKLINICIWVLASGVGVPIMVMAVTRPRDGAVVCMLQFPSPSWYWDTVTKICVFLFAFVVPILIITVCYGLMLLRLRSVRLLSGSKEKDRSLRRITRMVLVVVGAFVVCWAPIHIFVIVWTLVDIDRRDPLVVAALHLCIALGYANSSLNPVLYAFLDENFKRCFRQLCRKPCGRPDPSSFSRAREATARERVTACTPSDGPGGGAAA
Data set [4] addresses T1, hKOR. Nature of the data set: biochemical. The format is biochemical.
In data set [5] the target is T2, hMOR. Nature of the data set: GTPγS functional assay, MOR. The format is biochemical. Conditions: from GTPγS EC50 values.
Data set [6] concerns the target T3, hDOR. In words: GTPγS functional assay, DOR. The data set is classed as biochemical.
Data set [7] concerns male C57BL/6NHsd mice. Conditions: mouse, in vivo.
Data set [8] relates to male C57BL/6NHsd mice. Conditions: mouse, in vivo. The source holds these as a separate data set.
Data set [9] has as its system male C57BL/6NHsd mice. The settings on record: mouse, in vivo. The source holds these as a separate data set.
In data set [10] the test system is KOR. In words: Literature binding affinity at KOR. The settings on record: from literature Ki values.
Data set [11] concerns MOR. In words: Literature binding affinity at MOR. Conditions: from literature Ki values.
The target of data set [12] is KOR. Conditions: cited from earlier work.
In data set [13] the target is MOR. The settings on record: cited from earlier work.
In another data set the target is DOR. The settings on record: cited from earlier work.

T1 sequence (P41145 whole entry): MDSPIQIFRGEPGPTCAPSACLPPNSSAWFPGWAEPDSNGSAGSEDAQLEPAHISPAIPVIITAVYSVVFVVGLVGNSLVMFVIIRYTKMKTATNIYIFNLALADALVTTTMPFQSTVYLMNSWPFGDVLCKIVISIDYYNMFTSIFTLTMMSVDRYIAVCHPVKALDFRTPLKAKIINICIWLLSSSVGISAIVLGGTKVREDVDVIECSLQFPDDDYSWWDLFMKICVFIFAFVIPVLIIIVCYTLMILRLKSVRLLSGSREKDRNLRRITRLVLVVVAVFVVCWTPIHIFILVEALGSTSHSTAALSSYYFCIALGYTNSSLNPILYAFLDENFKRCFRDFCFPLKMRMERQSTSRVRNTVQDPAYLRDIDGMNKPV
T2 sequence (P35372 whole entry): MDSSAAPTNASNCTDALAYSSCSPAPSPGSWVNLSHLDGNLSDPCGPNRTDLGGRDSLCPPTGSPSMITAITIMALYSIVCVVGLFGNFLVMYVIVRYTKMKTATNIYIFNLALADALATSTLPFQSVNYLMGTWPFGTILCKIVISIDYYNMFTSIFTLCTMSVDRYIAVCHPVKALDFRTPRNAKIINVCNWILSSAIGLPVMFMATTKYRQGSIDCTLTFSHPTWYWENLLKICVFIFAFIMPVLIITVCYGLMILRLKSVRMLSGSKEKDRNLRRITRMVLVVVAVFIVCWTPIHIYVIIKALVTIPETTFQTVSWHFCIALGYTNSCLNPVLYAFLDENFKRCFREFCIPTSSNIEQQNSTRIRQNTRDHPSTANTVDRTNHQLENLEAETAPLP

Consider `COC(=O)[C@@H]1C[C@H](OC(=O)C2=Cc3ccccc3C2)C(=O)[C@H]2[C@@]1(C)CC[C@H]1C(=O)O[C@H](c3ccoc3)C[C@]21C` [Compound 2, Methyl-(2S,4aR,6aR,7R,9S,10aS,10bR)-9-((1H-indene-2-carbonyl)oxy)-2-(furan-3-yl)-6a,10b-dimethyl-4,10-dioxododecahydro-2H-benzo[f]isochromene-7-carboxylate], for which the Kd – broadly, a measure of binding affinity in units of concentration – turned out to be 49.7 nM at hKOR [1], 538 nM on hMOR [2] and 714 nM on hDOR [3]. Besides, the “fold preference towards KOR (binding affinity, KOR vs MOR)” value on hKOR [1] worked out at 11 fold. Further, on hKOR [4], the “Full or partial agonist (KOR)” value was 853 (456–1600)^[d]. Also, the “fold higher potency at MOR (vs KOR)” value on hMOR [5] is recorded as 17 fold. The EC50 – broadly, the midpoint of the concentration-response curve – at hDOR [6] came to 2350 nM. Also, the “latency to hind paw lick or flutter compared to vehicle” value with male C57BL/6NHsd mice [7] is reported as “significant increase in the latency to paw response”. For the same compound, in the data set on male C57BL/6NHsd mice [8], the “latency to tail withdrawal compared to vehicle” value was “Neither salvinorin A, herkinorin, nor compounds 2 or 10 demonstrated significant antinociception”. The “distance traveled in the maze compared to vehicle” value with male C57BL/6NHsd mice [9] (male, C57BL/6NHsd) is listed as “neither salvinorin A, nor compound 2, altered the distance”. The “time spent in the open arms compared to vehicle” value in the data set on male C57BL/6NHsd mice [9] was “significantly increased the amount of time spent on the open arms of the maze”.

For `COC(=O)[C@@H]1C[C@H](OC(=O)c2ccccc2)C(=O)[C@H]2[C@@]1(C)CC[C@H]1C(=O)O[C@H](c3ccoc3)C[C@]21C` [Herkinorin], in the data set with male C57BL/6NHsd mice [7], the “latency to hind paw lick or flutter compared to vehicle” value is listed as “Neither salivinorin A, herkinorin, nor compound 10 were observed to significantly influence the latency to paw response”. The “latency to tail withdrawal compared to vehicle” value with male C57BL/6NHsd mice [8] is “Neither salvinorin A, herkinorin, nor compounds 2 or 10 demonstrated significant antinociception”. Also, the “fold lower affinity for KOR compared to salvinorin A” value with KOR [10] is reported as 47 fold. Besides, the “fold higher affinity for MOR compared to salvinorin A” value in the data set with MOR [11] is on record as at least 83 fold. In addition, in the data set with male C57BL/6NHsd mice [9], the “time spent in the open arms compared to vehicle” value was “notable increase in open arm time, but this was not statistically significant”. Also, the Kd was 90 ± 2 nM at KOR [12] (read-out: KD [nM] (KOR)); 12 ± 1 nM on MOR [13] (read-out: KD [nM] (MOR)); 1170 ± 60 nM on DOR (read-out: KD [nM] (DOR), Literature values). Moreover, the Ki – broadly, the equilibrium dissociation constant of an inhibitor or competing ligand from its target – at KOR [12] (read-out: Ki (KOR)) is 90 nM; at MOR [13] (read-out: Ki (MOR)), 12 nM; at DOR (read-out: Ki (DOR)), 1170 nM.
